The values that follow come from patent publication US9125926B2, “Vicenin 2 and analogues thereof for use as an antispasmodic and/or prokinetic agent” (priority 2011, dated 2015).

Values after ≈ are worked out from the molar mass of the structure shown.

Data set [1] has as its system rat ileum. Kind of data set: Rat ileum contraction induced by increasing concentrations of acetylcholine (neurotropic antispasmodic effect). As to the method:
(§1) An isolated vicenin 2 compound was tested for its antispasmodic effect with respect to the cholinergic system and with respect to nonspecific contraction mediated by Ba^++. Therefore, rat ileum was precontracted with increasing concentrations of either acetylcholine or Ba^++. The shift of either concentration response curve by the compound was determined. […] The dose of vicenin 2 for humans was estimated to be between 5 and 15 μg/70 kg b.w. which will correspond to 0.071 and 0.214 μg/kg b.w. Due to the increased metabolism in rodents compared to humans the doses were calculated as approx. between 0.5 and 1.49 μg/kg b.w. The central (blood) compartment (hydrophilic extracts) is approx. 7% of whole body volume, i.e. between 0.5/70 g and 1.4 μg/70 g blood. Since blood is in direct contact with ileum, a concentration of 7 to 20.86 μg/kg (0.007 to 0.021 μg/g) is expected for ileum. […] Therefore, it was reasonable to translate these in vivo calculations into the in vitro experiments and in these experiments 10 and 100 μl of a stock solution per 10 ml incubation bath were used. […] Under a protocol approved by the Animal Care and Use Committee of Munster, Germany, male and female rats (Charles River, Sulzfeld, Germany) weighing 200 to 320 g were used. The rats were anesthetized (CO2). The proximal ileum was removed, washed and placed in Krebs-Henseleit solution. 1 cm segments were placed in 10 mL organ baths with a resting tension of 1.0 g (preload). One end was attached to a force displacement transducer (lever transducer B40, Typ 373) combined with a two-channel amplifier (type 301, Hugo Sachs Elektronik, March, Germany); for the recording of tension changes a multi-pen recorder was used (Rikadenki Kogyo, Tokio, Japan). The composition of Krebs-Henseleit solution was (mM): […] The solution was kept at 37° C., pH 7.4 and gassed with carbogen (a 95% O2/5% CO2 mixture). Equilibration time for the ileum before starting the experiment was at least 30 min. After the tissues had been pre-treated with the extracts for 3 min cumulative concentration response curves using either acetylcholine or barium ion were recorded isotonically in the organ bath, and the effect was allowed to reach a steady state at each concentration. The results were normalized to 100% (maximum effect of either acetylcholine or barium ion alone). Differences between entire curves were obtained by comparing F-values of the best fitted curves by using GraphPad-Prism (version 3.00, GraphPad Software, Inc., 1999). P<0.05 was regarded as statistically significant.

For data set [2], the system named is rat ileum. Put plainly: Rat ileum contraction induced by increasing concentrations of barium ion (musculotropic antispasmodic effect). As to the method: as §1
Data set [3] has as its system rat ileum. Put plainly: Rat ileum contraction, effect of the compound on its own (spasmolytic effect). To be noted: data as % of maximum acetylcholine effect; FIG. 1. As to the method:
An isolated vicenin 2 compound was tested for its antispasmodic effect with respect to the cholinergic system and with respect to nonspecific contraction mediated by Ba^++. Therefore, rat ileum was precontracted with increasing concentrations of either acetylcholine or Ba^++. The shift of either concentration response curve by the compound was determined. […] The dose of vicenin 2 for humans was estimated to be between 5 and 15 μg/70 kg b.w. which will correspond to 0.071 and 0.214 μg/kg b.w. Due to the increased metabolism in rodents compared to humans the doses were calculated as approx. between 0.5 and 1.49 μg/kg b.w. The central (blood) compartment (hydrophilic extracts) is approx. 7% of whole body volume, i.e. between 0.5/70 g and 1.4 μg/70 g blood. Since blood is in direct contact with ileum, a concentration of 7 to 20.86 μg/kg (0.007 to 0.021 μg/g) is expected for ileum. […] Therefore, it was reasonable to translate these in vivo calculations into the in vitro experiments and in these experiments 10 and 100 μl of a stock solution per 10 ml incubation bath were used. […] After the tissues had been pre-treated with the extracts for 3 min cumulative concentration response curves using either acetylcholine or barium ion were recorded isotonically in the organ bath, and the effect was allowed to reach a steady state at each concentration. […]

Data set [4] concerns murine frontal cortex networks. Put plainly: Cortical network activity in vitro, electrophysiological multi-channel recordings on MEA neurochips. It is filed as cell-based, mice. The text has this: Purpose of this example was the evaluation of the acute neuroactive effects of vicenin 2 (named AUC-V) on the neuronal activity of murine frontal cortex networks in vitro by means of electrophysiological multi-channel recordings.
Therefore, in a first step the dose-effect curve of vicenin 2 was plotted by means of cumulatively increasing the substance concentration, so that the spectrum of activity of the substance is optimally covered with 9 concentrations. Concentration from 100 fg/ml, 10 pg/ml, […], 1 ng/ml, 100 ng/ml, 1 μg/ml, 10 μg/ml, 100 μg/ml and 300 μg/ml were used.
Subsequently, the measurements of the dose-effect curve of the test substances were repeated at least 10 times. The recorded electrical activity patterns were characterized by 200 features and their changes were statistically evaluated.
The microelectrode array neurochips (MEA neurochips) were provided by the Center for Network Neuroscience (CNNS) at the University of North Texas. These 5×5 cm^2 glass chips have a central recording matrix with 64 passive electrodes and indium tin oxide conductors. The hydrophobic insulation material surface was activated by a brief butane flame pulse through a stainless steel mask. Thus, cell attachment on a confined adhesive region (5 mm diameter centered on the electrode array) is ensured. The activated surface regions were coated with poly-D-lysine (25 μg/ml; 30-70 kD) and laminin (16 μg/ml). Fabrication techniques and culture methods have been described previously.
Frontal cortex tissue was harvested from embryonic day 15, or day 14 chr:NMRI mice. After ethyl ether anesthesia, mice were sacrificed by cervical dislocation according to the German Animal Protection Act §4. […] Cultures were incubated at 37° C. in a 10% CO2 atmosphere until ready for use, which usually is four weeks to three months after seeding. […]
For extracellular recording, MEA neurochips were placed into sterilized constant-bath recording chambers and maintained at 37° C. […] The signals routinely recorded by these neurochips are located in a range of 15-1800 μV. […]

The subject of data set [5] is murine frontal cortex networks. Kind of data set: Pattern recognition classification of activity patterns against the NeuroProof database (105 substances). It is filed as cell-based, mice. To be noted: AUC-V, all 143. How it is done: Afterwards, a further analysis was carried out through a pattern-recognition analysis and through comparison with NeuroProof database to determine relevant mechanisms involved in the frontal cortex activity pattern induced changes by each substance.
To clarify the mode of action of the test substance on the activity of cortical networks these experiments were further analyzed using methods of pattern recognition. For each stable concentration activity phase we normalized the 200 spike train parameters by the native reference activity.
Using a feature selection algorithm, on the basis of the reference substances, the 40 most descriptive parameters for all 200 spike train parameters were selected. The rankings of activity features using various score methods based on classification experiments and compared their total correct predictions were calculated. In this manner, the best results for a MDL (minimal description length) modified algorithm were obtained. A training data set with these 40 spike train parameters was established in the form of data records from the reference substances. An artificial neuronal network, multi layer feed forward network and back propagation algorithm […] hidden units was then trained. The respective data records of the four substances were all subsequently classified. A classification against 105 substances in the database was carried out.
The classification against 105 substances using the electrophysiological multi-channel recording of vicenin 2 and the 105 substances identified several activities for vicenin 2.

Data set [6] can be described thus: Solubility of isolated vicenin 2. It is filed as physicochemical.

With `CN1[C@@H]2CC[C@H]1C[C@@H](OC(=O)C(CO)c1ccccc1)C2` (stereo partly drawn) [Atropine, reference compound], the “shift of the acetylcholine concentration response curve” value is listed as “expected competitive neurotropic antispasmodic effect” in the data set with rat ileum [1] (positive control, 5×10^−5 mg/ml, FIG. 2) and “significantly different from the acetylcholine curve” in the data set with rat ileum [1] (positive control, 5×10^−5 mg/ml, FIG. 2, listed as atropine).

In the case of `COc1ccc(Cc2nccc3cc(OC)c(OC)cc23)cc1OC` [Papaverine, reference compound], the “shift of the Ba++ concentration response curve” value in the data set on rat ileum [2] (positive control, 4×10^−2 g/ml, FIG. 4) is listed as “expected non-competitive musculotropic antispasmodic effect”; in the data set on rat ileum [2] (positive control, 4×10^−2 g/ml, FIG. 4, listed as papaverine), “significantly different from the acetylcholine curve without additions”.

For orientation: EC50 means the concentration giving half of the maximal effect. Take `O=c1cc(-c2ccc(O)cc2)oc2c([C@@H]3O[C@H](CO)[C@@H](O)[C@H](O)[C@H]3O)c(O)c([C@@H]3O[C@H](CO)[C@@H](O)[C@H](O)[C@H]3O)c(O)c12` [vicenin 2, 5,7-Dihydroxy-2-(4-hydroxyphenyl)-6,8-bis[(2S,3R,4R,5S,6R)-3,4,5-trihydroxy-6 (hydroxymethyl)oxan-2-yl]chromen-4-one]: the “shift of the acetylcholine concentration response curve” value in the data set on rat ileum [1] (0.005 mg/ml final bath concentration, FIG. 2) is “shifted the acetylcholine curve to the right in a competitive manner”; with rat ileum [1] (0.005 mg/ml final bath concentration, FIG. 2, listed as AUC-V) it was “significantly different from the acetylcholine curve”; in the data set with rat ileum [1] (0.05 mg/ml final bath concentration, FIG. 3) it was “stronger rightward and downward shift of the acetylcholine curve”; with rat ileum [1] (0.05 mg/ml final bath concentration, FIG. 3, listed as AUC-V), “significantly different from the acetylcholine curve”. Besides, the “effect on rat ileum contraction from its own (direct spasmolytic effect)” value in the data set with rat ileum [3] is “slight (not significant) relaxation”. Besides, in data set [4], the “effect on burst structure of the network” value is reported as “no affects on the burst structure”. Also, the EC50 in data set [4] (Mus musculus, 9 accumulating concentrations, FIG. 6, read-out: EC50 of decrease of the cortical network activity (spike rate)) came out at 2 µg/mL (≈ 3.36 µM). In data set [4] (remaining activity, FIG. 6), the “maximum decrease of the cortical network activity” value is listed as 80 % of the native activity. The “shift of the Ba++ concentration response curve” value in the data set with rat ileum [2] (0.005 mg/ml final bath concentration, FIG. 4) was “shifted the Ba^++ curve downwards”; with rat ileum [2] (0.005 mg/ml final bath concentration, FIG. 4, listed as AUC-V) it was “significantly different from the acetylcholine curve without additions”; in the data set with rat ileum [2] (0.05 mg/ml final bath concentration, FIG. 5) it was “rightward and downward shift of the Ba^++ curve”; in the data set on rat ileum [2] (0.05 mg/ml final bath concentration, FIG. 5, listed as AUC-V) it was “significantly different from the acetylcholine curve with no further additions”. The “data records classified as the respective substance” value in data set [5] (classified as Amisulpride) amounted to 15%; in data set [5] (classified as Atropinemethylbromide), 12%; in data set [5] (classified as DPDPE), 11%; in data set [5] (classified as Enkephalin) it was 14%; in data set [5] (classified as Eserine) it was 15%; in data set [5] (classified as Indatraline), 12%. The “data records classified as the respective substance” value in data set [5] (classified as Modafinil) worked out at 12%; in data set [5] (classified as Nicotine), 12%; in data set [5] (classified as Olanzapine), 17%; in data set [5] (classified as Sodium dodecyl sulfate), 12%. The solubility entry in data set [6] is “good solubility”.
